# Experimental data published in patent US20240287609A1, “COMPOSITIONS AND METHODS FOR LARGE-SCALE IN VIVO GENETIC SCREENING” (UNIVERSITY OF UTAH RESEARCH FOUNDATION, priority 2021, published 2024).
# Entries after “also recorded” stand apart in the source; their conditions may differ.
# System: zebrafish larvae
# Experiment: Light- and Optovin-induced motor response assay
# Type: in vivo, zebrafish (Danio rerio)
# Settings: 10 μM optovin, wild-type zebrafish, pulsed violet light
# Experimental: Light- and Optovin-induced motor response assay. Zebrafish larvae at 3 dpf were arrayed in 96-well plates and treated with 10 μM optovin (Fisher Scientific, cat #490110) in a total volume of 200 μL E3 media. Treated larvae were incubated at […] for 1 h in dark. […] Movement of the larvae was tracked and quantitated following 5×1s pulse of violet light after 10 s interval in the dark.
# Identifying the protein targets of small molecules remains one of the major challenges in chemical biology and pharmacology. Herein it was hypothesized that MIC-Drop could be used to identify the targets of small molecules that result in complex behavioral phenotypes in the zebrafish. As proof-of-principle, optovin was utilized, a small molecule agonist of the trpa1b channel that allows photo-activatable behavioral modifications in zebrafish. Droplets targeting the trpa1b channel were spiked into a collection of droplets containing scrambled gRNAs in a 1:20 ratio (FIG. 7B). Droplet-injected embryos were arrayed into 96-well plates, treated with optovin and exposed to violet light flashes while simultaneously recording embryo movement. […] Thus, the MIC-Drop platform was able to be used to identify the target of optovin from among a library of non-target candidates.
structure (smiles),measurement,value
Cc1cc(/C=C2/SC(=S)NC2=O)c(C)n1-c1cccnc1 [optovin],motor response of zebrafish after treatment,light-dependent motor response; also recorded: light-dependent motion response
